Measured values: paper PMC8571282 (Nature Communications, 2021)
Values joined by “and” are separate entries in the source; they are usually repeats but may differ in a detail not shown here. Identical values can stand only once. Like-named read-outs stand apart in the source and are kept apart here.

Experiments:
[1] = dogs, reported; cited from earlier work
[2] = system: SARS-CoV-2 WA1/2020; format: in vivo, ferret (Mustela putorius furo)
[3] = system: SARS-CoV-2 VOC γ (BZ/2021); format: in vivo, ferret (Mustela putorius furo)
[4] = system: “DF2” primary HAE cells (diseased, asthma); settings: 72 h
[5] = in vitro; settings: hamster, % cell viability, 72 h
[6] = in vitro; settings: human, CC50, “M2” HAE
[7] = system: HEp-2 cells; experiment: Cytotoxicity assay (PrestoBlue), HEp-2; settings: for % cell viability: 72 h
[8] = system: HCT-8 cells; experiment: Cytotoxicity assay (PrestoBlue), HCT-8; settings: for % cell viability: 72 h
[9] = system: BHK-21 cells; experiment: Cytotoxicity assay (PrestoBlue), BHK-21; settings: 72 h
[10] = system: “M2” primary HAE cells; experiment: Cytotoxicity assay (PrestoBlue), “M2” HAE; settings: 72 h; for % cell viability: M2 HAE
[11] = GS-441524 and metabolite concentrations in ferret lung tissue; settings: single 30 mg/kg oral GS-621763, 24 h
[12] = Fig 4b, […], 10 mg/kg b.i.d., Time 0.0
[13] = Fig 4b, […], 10 mg/kg b.i.d., Time 0.5
[14] = Fig 4b, […], 10 mg/kg b.i.d., Time 1.0
[15] = Fig 4b, […], 10 mg/kg b.i.d., Time 1.5
[16] = Fig 4b, […], 10 mg/kg b.i.d., Time 2.0
[17] = Fig 4b, […], 10 mg/kg b.i.d., Time 2.5
[18] = Fig 4b, […], 10 mg/kg b.i.d., Time 3.0
[19] = Fig 4b, […], 10 mg/kg b.i.d., Time 3.5
[20] = Fig 4b, […], 10 mg/kg b.i.d., Time 4.0
[21] = Fig 4b, […], 10 mg/kg b.i.d., all 9 time points
[22] = headed Fig 3c, […], 10 mg/kg b.i.d., Time 0
[23] = headed Fig 3c, […], 10 mg/kg b.i.d., Time 1
[24] = headed Fig 3c, […], 10 mg/kg b.i.d., Time 2
[25] = headed Fig 3c, […], 10 mg/kg b.i.d., Time 3
[26] = headed Fig 3c, […], 10 mg/kg b.i.d., Time 4
[27] = headed Fig 3c, […], 10 mg/kg b.i.d., all 5 time points

SMILES: N#C[C@@]1(c2ccc3c(N)ncnn23)O[C@H](CO)[C@@H](O)[C@H]1O [GS-441524]
- oral availability [1]: 89%

SMILES: CC(C)C(=O)OCC1OC(C#N)(c2ccc3c(N)ncnn23)C(OC(=O)C(C)C)C1OC(=O)C(C)C (stereo not shown) [GS-621763]
- Transform of Nasal turbinate titers, Mean (treated) ([2]; Fig 2f, 20 mg kg-1 b.i.d., sample size 4): 2.037
- Transform of Nasal turbinate titers, Difference between means (C - A) ± SEM ([2]; Fig 2f, treated minus Vehicle, 20 mg kg-1 b.i.d., unpaired t test): -2.239 ± 0.3026
- Transform of Small Intestine copies/gram, Mean (treated) ([2]; Fig 2i, 20 mg kg-1 b.i.d., sample size 4): 0
- Transform of Small Intestine copies/gram, Difference between means (C - A) ± SEM ([2]; Fig 2i, treated minus Vehicle, 20 mg kg-1 b.i.d., unpaired t test): -1.018 ± 1.018
- Transform of Large Intestine copies/gram, Mean (treated) ([2]; Fig 2j, 20 mg kg-1 b.i.d., sample size 4): 0
- Transform of Large Intestine copies/gram, Difference between means (C - A) ± SEM ([2]; Fig 2j, treated minus Vehicle, 20 mg kg-1 b.i.d., unpaired t test): -1.911 ± 1.104
- Transform of Nasal Turbinate RNA copies/g, Mean (treated) ([2]; Fig 2h, 20 mg kg-1 b.i.d., sample size 4): 3.868
- Transform of Nasal Turbinate RNA copies/g, Difference between means (C - A) ± SEM ([2]; Fig 2h, treated minus Vehicle, 20 mg kg-1 b.i.d., unpaired t test): -2.950 ± 0.3528
- SARS-CoV-2 RNA copies in lungs ([2]; in vivo): not detected
- SARS-CoV-2 infectious particles in lungs ([2]; in vivo): 109 pfu
- Virus titers from nasal lavages ([2]; in vivo): 9 pfu
- shed SARS-CoV-2 load in nasal lavages ([2]; in vivo): transiently detectable in lavages of only one ferret
- viral RNA copy numbers in turbinates, difference between vehicle and treatment groups ([2]; in vivo): three
- virus in nasal turbinates 4 days after infection ([2]; in vivo): undetectable
- Nasal lavage titer, Mean Diff. Vehicle - GS-621763 [3, 12]: 0
- Nasal lavage titer, group mean (Mean 2; Transform of Brazil - Nasal Lavage Titer) [3, 12]: 0.699
- Nasal lavage titer, Mean Diff. Vehicle - GS-621763 [3, 13]: 0
- Nasal lavage titer, group mean (Mean 2; Transform of Brazil - Nasal Lavage Titer) [3, 13]: 0.699
- Nasal lavage titer, Mean Diff. Vehicle - GS-621763 [3, 14]: 0
- Nasal lavage titer, group mean (Mean 2; Transform of Brazil - Nasal Lavage Titer) [3, 14]: 0.699
- Nasal lavage titer, Mean Diff. Vehicle - GS-621763 [3, 15]: 0.7768
- Nasal lavage titer, group mean (Mean 2; Transform of Brazil - Nasal Lavage Titer) [3, 15]: 0.699
- Nasal lavage titer, Mean Diff. Vehicle - GS-621763 [3, 16]: 1.969
- Nasal lavage titer, group mean (Mean 2; Transform of Brazil - Nasal Lavage Titer) [3, 16]: 0.8495
- Nasal lavage titer, Mean Diff. Vehicle - GS-621763 [3, 17]: 2.801
- Nasal lavage titer, group mean (Mean 2; Transform of Brazil - Nasal Lavage Titer) [3, 17]: 0.7742
- Nasal lavage titer, Mean Diff. Vehicle - GS-621763 [3, 18]: 2.882
- Nasal lavage titer, group mean (Mean 2; Transform of Brazil - Nasal Lavage Titer) [3, 18]: 0.7742
- Nasal lavage titer, Mean Diff. Vehicle - GS-621763 [3, 19]: 2.92
- Nasal lavage titer, group mean (Mean 2; Transform of Brazil - Nasal Lavage Titer) [3, 19]: 0.699
- Nasal lavage titer, Mean Diff. Vehicle - GS-621763 [3, 20]: 2.821
- Nasal lavage titer, group mean (Mean 2; Transform of Brazil - Nasal Lavage Titer) [3, 20]: 0.699
- Nasal lavage titer, column mean of GS-621763 over all times [3, 21]: 0.7324
- Nasal lavage titer, difference between column means (Vehicle - GS-621763) [3, 21]: 1.574
- Nasal turbinate RNA, Mean Diff. Vehicle vs. GS-621763 ([3]; Fig 4e, […], 10 mg/kg b.i.d.): 3.96
- Nasal turbinate RNA, group mean of GS-621763-treated source animals (Transform of Brazil - Nasal Turbinate RNA) ([3]; Fig 4e, […], 10 mg/kg b.i.d.): 5.208
- Turbinate titers, Mean Diff. Vehicle vs. GS-621763 ([3]; Fig 4d, […], 10 mg/kg b.i.d.): 3.511
- Turbinate titers, group mean of GS-621763-treated source animals (Transform of Brazil - Turbinate Titers) ([3]; Fig 4d, […], 10 mg/kg b.i.d.): 0.9542
- Nasal lavage RNA, Mean Diff. Vehicle - GS-621763 [3, 22]: 0
- Nasal lavage RNA, group mean (Mean 2; Transform of Brazil - Nasal Lavage RNA) [3, 22]: 0
- Nasal lavage RNA, Mean Diff. Vehicle - GS-621763 [3, 23]: 0.6874
- Nasal lavage RNA, group mean (Mean 2; Transform of Brazil - Nasal Lavage RNA) [3, 23]: 2.265
- Nasal lavage RNA, Mean Diff. Vehicle - GS-621763 [3, 24]: 3.062
- Nasal lavage RNA, group mean (Mean 2; Transform of Brazil - Nasal Lavage RNA) [3, 24]: 2.426
- Nasal lavage RNA, Mean Diff. Vehicle - GS-621763 [3, 25]: 4.178
- Nasal lavage RNA, group mean (Mean 2; Transform of Brazil - Nasal Lavage RNA) [3, 25]: 2.173
- Nasal lavage RNA, Mean Diff. Vehicle - GS-621763 [3, 26]: 3.536
- Nasal lavage RNA, group mean (Mean 2; Transform of Brazil - Nasal Lavage RNA) [3, 26]: 2.653
- Nasal lavage RNA, column mean of GS-621763 over all times [3, 27]: 1.903
- Nasal lavage RNA, difference between column means (Vehicle - GS-621763) [3, 27]: 2.293
- Infectious virus titer in nasal lavage (Fig 4B) ([3]; in vivo, 10 mg/kg): 5 pfu and 10 pfu
- SARS-CoV-2 RNA copies in lungs (Fig 4G) ([3]; in vivo, 10 mg/kg): not detected
- lowering of viral RNA copies in nasal lavages and turbinates ([3]; in vivo, po, 10 mg/kg): over three orders of magnitude
- shed virus burden and tissue titers ([3]; in vivo, po, 10 mg/kg): undetectable levels
- % cell viability ([4]; DF2 HAE, 1.235 µM): 106%
- % cell viability ([4]; DF2 HAE, 3.704 µM): 113%
- % cell viability ([4]; DF2 HAE, 33.333 µM): 114%
- % cell viability ([4]; human, 100 µM): 5%
- viability at 72 h, 0.046 µM ([5]; BHK-21, 0.046 µM): 89%
- viability at 72 h, 1.235 µM ([5]; BHK-21, 1.235 µM): 89%
- viability at 72 h, 33.333 µM ([5]; BHK-21, 33.333 µM): 103%
- CC50 at 72 h [6]: 39.7 µM
- % cell viability ([7]; HEp-2, 0.046 µM, 0.046 µM): 67% and 49%
- % cell viability ([7]; HEp-2, 3.704 µM, 3.704 µM): 107% and 97%
- CC50 ([7]; HEp-2, 72 h): 79.4 µM
- % cell viability ([8]; HCT-8, 0.046 µM, 0.046 µM): 75% and 72%
- % cell viability ([8]; HCT-8, 1.235 µM, 1.235 µM): 103%
- % cell viability ([8]; HCT-8, 33.333 µM, 33.333 µM): 96%
- % cell viability ([8]; HCT-8, 100 µM, 100 µM): 1%
- CC50 ([8]; HCT-8, 72 h): 74.6 µM
- % cell viability ([9]; BHK-21, 0.046 µM, 0.046 µM): 79%
- % cell viability ([9]; BHK-21, 1.235 µM, 1.235 µM): 92%
- % cell viability ([9]; BHK-21, 3.704 µM, 3.704 µM): 96% and 93%
- % cell viability ([9]; BHK-21, 33.333 µM, 33.333 µM): 95%
- % cell viability ([9]; BHK-21, 100 µM, 100 µM): 84%
- % cell viability ([10]; 0.046 µM): 88% and 92%
- % cell viability ([10]; 1.235 µM): 112%
- % cell viability ([10]; 3.704 µM): 115%
- % cell viability ([10]; 33.333 µM): 86% and 83%
- CC50 ([10]; “M2” HAE): 39.7 µM
- GS-443902 levels in respiratory tissues trailing those of intravenous 10 mg/kg remdesivir [11]: approximately fourfold
